Patent publication US5066489A (Cetus Corporation, priority 1990, dated 1991)

Assays:
[1] = DTIC pharmacokinetics in patients (first two cycles, 12 patients); assay type: in vivo, human; details: effect of IL-2; first two cycles in 12 patients
Protocol: (§1) For the First Cycle--Patients were admitted to the hospital on a Sunday evening for a Hickman catheter placement on the succeeding Monday. On Day 1 (Tuesday), DTIC was administered by continuous 24 hour infusion at a dose of 1.0 gm/m^2 intravenously. Pharmacokinetic studies were performed on Days 1 and 2.
DTIC pharmokinetics were performed on the first two cycles in 12 patients.

metastatic melanoma = details: cited from earlier work
[2] = Phase I-II study of IL-2 plus DTIC in melanoma patients: toxicity; assay type: in vivo, human; details: DTIC 1.0 gm/m^2 24 h infusion
Protocol: Patients, between 18 to 70 years of age, were admitted for three, separate Phase I-II studies. Each patient had to meet the following criteria for entering the study:
1. Dose and Schedule--Twenty patients received three cycles of Interleukin-2 in combination with DTIC. Each cycle was 28 days in duration. All drugs were administered by hospital staff either while in-patient or in the out-patient clinic. Patients received 1.0 gm/m^2 of DTIC as an IV continuous infusion over 24 hours every 4 weeks.
as §1
The dose schedule was identical to that given for cycle two.

[3] = cited from earlier work

SMILES	peak plasma levels [1]	antitumor schedule dependency (metastatic melanoma; DTIC dose regimens)	single agent response rate (metastatic melanoma; Roth and Kirkwood (1987))	most promising response rate (%) observed alone (metastatic melanoma; complete plus partial responses, treatment of melanoma, Roth (DTIC), Rosenberg et al 1987 (IL-2))	dose responses (metastatic melanoma; five-day continuous infusions)	responsiveness of visceral metastases (gastrointestinal tract, liver, brain) (metastatic melanoma; versus soft tissue disease)	dosage adjustments for nausea/vomiting or for myelosuppression [2]	mild nausea and vomiting ([2]; of the courses)	hematologic and GI toxicities ([3]; DTIC dose regimen)	acute toxicity ([3]; five-day continuous infusions)
CN(C)N=Nc1[nH]cnc1C(N)=O [DTIC, dimethyl-triazeno-imidazole-carboxmide]	not altered by IL-2	has not been observed	24%	approximately 24%	equivalent dose responses	relatively less responsive than soft tissue disease	required no dosage adjustments	96%	vary with the DTIC dose regimen used	least acute toxicity
NC(=O)c1[nH]cnc1N [AIC, 5-aminoimidazole 4-carboxamide]	not altered by IL-2									
